Laboratory results taken from ChEMBL document CHEMBL6096689, “Structure-Guided Development of ClpP Agonists with Potent Therapeutic Activities against Staphylococcus aureus Infection” (J Med Chem, 2025).
Values after ≈ are worked out from the molar mass of the structure shown. Blank lines part the entries; values can stand above or below the compound they belong to.

Key:
Staphylococcus aureus [1] = assay: microbe, parasite or virus in culture; assay type: functional; conditions: Newman, time 18 hrs
Description: Antibacterial activity against Staphylococcus aureus Newman assessed as inhibition of visible growth of bacteria incubated for 18 hrs by absorbance based analysis

[2] = molecular target: T1, ATP-dependent Clp protease proteolytic subunit (Staphylococcus aureus (strain NCTC 8325), UniProt Q2G036); assay: Agonist activity at Staphylococcus aureus ClpP extracted from Escherichia coli BL21 (DE3) cells using alpha-casein as substrate assessed as substrate hydrolysis preincubated for 15 mins followed by substrate addition and measured after 2 hrs by SDS-PAGE analysis
T1 sequence (Q2G036 whole entry): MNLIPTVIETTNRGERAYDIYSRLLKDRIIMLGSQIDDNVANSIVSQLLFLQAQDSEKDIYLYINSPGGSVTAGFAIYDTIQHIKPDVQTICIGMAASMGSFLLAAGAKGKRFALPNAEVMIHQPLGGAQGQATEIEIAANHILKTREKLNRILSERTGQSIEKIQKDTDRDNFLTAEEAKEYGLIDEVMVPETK

Staphylococcus aureus [3] = assay: microbe, parasite or virus in culture; assay type: functional; conditions: time 18 hrs
Description: Antibacterial activity against multidrug-resistant Staphylococcus aureus clinical isolate XJ025 assessed as inhibition of visible growth of bacteria incubated for 18 hrs by absorbance based analysis

Staphylococcus aureus [4] = assay: microbe, parasite or virus in culture; assay type: functional; conditions: USA300, time 18 hrs
Description: Antibacterial activity against methicillin-resistant Staphylococcus aureus USA300 assessed as inhibition of visible growth of bacteria incubated for 18 hrs by absorbance based analysis

Staphylococcus aureus [5] = assay: microbe, parasite or virus in culture; assay type: functional; conditions: time 18 hrs; remark: listed apart in the source
Description: Antibacterial activity against multidrug-resistant Staphylococcus aureus clinical isolate XJ051 assessed as inhibition of visible growth of bacteria incubated for 18 hrs by absorbance based analysis

Staphylococcus aureus [6] = assay: microbe, parasite or virus in culture; assay type: functional; conditions: time 18 hrs; remark: listed apart in the source
Description: Antibacterial activity against multidrug-resistant Staphylococcus aureus clinical isolate XJ052 assessed as inhibition of visible growth of bacteria incubated for 18 hrs by absorbance based analysis

Staphylococcus aureus [7] = assay: microbe, parasite or virus in culture; assay type: functional; conditions: NRS-70, time 18 hrs
Description: Antibacterial activity against methicillin-resistant Staphylococcus aureus NRS-70 assessed as inhibition of visible growth of bacteria incubated for 18 hrs by absorbance based analysis

Staphylococcus aureus [8] = assay: microbe, parasite or virus in culture; assay type: functional; conditions: time 18 hrs; remark: listed apart in the source
Description: Antibacterial activity against multidrug-resistant Staphylococcus aureus clinical isolate XJ009 assessed as inhibition of visible growth of bacteria incubated for 18 hrs by absorbance based analysis

Staphylococcus aureus [9] = assay: microbe, parasite or virus in culture; assay type: functional; conditions: NRS-271, time 18 hrs
Description: Antibacterial activity against methicillin-resistant Staphylococcus aureus NRS-271 assessed as inhibition of visible growth of bacteria incubated for 18 hrs by absorbance based analysis

Staphylococcus aureus [10] = assay: microbe, parasite or virus in culture; assay type: functional; conditions: time 18 hrs; remark: listed apart in the source
Description: Antibacterial activity against multidrug-resistant Staphylococcus aureus clinical isolate XJ049 assessed as inhibition of visible growth of bacteria incubated for 18 hrs by absorbance based analysis

Staphylococcus aureus [11] = assay: microbe, parasite or virus in culture; assay type: functional; conditions: NRS-108, time 18 hrs
Description: Antibacterial activity against methicillin-resistant Staphylococcus aureus NRS-108 assessed as inhibition of visible growth of bacteria incubated for 18 hrs by absorbance based analysis

Staphylococcus aureus [12] = assay: microbe, parasite or virus in culture; assay type: functional; conditions: NRS-1, time 18 hrs
Description: Antibacterial activity against methicillin-resistant Staphylococcus aureus NRS-1 assessed as inhibition of visible growth of bacteria incubated for 18 hrs by absorbance based analysis

SMILES: CC[C@H](C)[C@H]1C(=O)N(Cc2cccc3ccccc23)C[C@@H]2N(C(=O)NCCC(C)C)CCC(=O)N12
- MIC (Staphylococcus aureus [1]): 2 µg/mL (≈ 4.18 µM)
- EC50 [2]: 1900 nM

SMILES: CC(C)C[C@H]1C(=O)N(Cc2cccc3ccccc23)C[C@@H]2N(C(=O)NCc3ccccc3)CCC(=O)N21
- MIC (Staphylococcus aureus [1]): 16 µg/mL (≈ 32.1 µM)
- EC50 [2]: 1200 nM

SMILES: CCC[C@@H]1C[C@@H](C(=O)N[C@@H]([C@H]2O[C@H](SC)[C@H](O)[C@@H](O)[C@H]2O)[C@H](C)Cl)N(C)C1 [CLINDAMYCIN]
- MIC (Staphylococcus aureus [3]): 0.016 µg/mL (≈ 0.0376 µM)
- MIC (Staphylococcus aureus [4]): 0.008 µg/mL (≈ 0.0188 µM)
- MIC (Staphylococcus aureus [5]): 0.016 µg/mL (≈ 0.0376 µM)
- MIC (Staphylococcus aureus [6]): > 128 µg/mL
- MIC (Staphylococcus aureus [7]): 128 µg/mL (≈ 301 µM)
- MIC (Staphylococcus aureus [1]): 0.016 µg/mL (≈ 0.0376 µM)
- MIC (Staphylococcus aureus [8]): 128 µg/mL (≈ 301 µM)
- MIC (Staphylococcus aureus [9]): 0.016 µg/mL (≈ 0.0376 µM)
- MIC (Staphylococcus aureus [10]): > 128 µg/mL
- MIC (Staphylococcus aureus [11]): 128 µg/mL (≈ 301 µM)
- MIC (Staphylococcus aureus [12]): 64 µg/mL (≈ 151 µM)

SMILES: NC[C@H]1O[C@H](O[C@H]2[C@H](O)[C@@H](O[C@H]3O[C@H](CO)[C@@H](O)[C@H](N)[C@H]3O)[C@H](N)C[C@@H]2N)[C@H](O)[C@@H](O)[C@@H]1O [KANAMYCIN]
- MIC (Staphylococcus aureus [3]): > 128 µg/mL
- MIC (Staphylococcus aureus [4]): > 128 µg/mL
- MIC (Staphylococcus aureus [5]): > 128 µg/mL
- MIC (Staphylococcus aureus [6]): > 128 µg/mL
- MIC (Staphylococcus aureus [7]): 64 µg/mL (≈ 132 µM)
- MIC (Staphylococcus aureus [1]): 4 µg/mL (≈ 8.26 µM)
- MIC (Staphylococcus aureus [8]): > 128 µg/mL
- MIC (Staphylococcus aureus [9]): 2 µg/mL (≈ 4.13 µM)
- MIC (Staphylococcus aureus [10]): > 128 µg/mL
- MIC (Staphylococcus aureus [11]): 64 µg/mL (≈ 132 µM)
- MIC (Staphylococcus aureus [12]): > 128 µg/mL

SMILES: CC[C@H]1OC(=O)[C@H](C)[C@@H](O[C@H]2C[C@@](C)(OC)[C@@H](O)[C@H](C)O2)[C@H](C)[C@@H](O[C@@H]2O[C@H](C)C[C@H](N(C)C)[C@H]2O)[C@](C)(O)C[C@@H](C)C(=O)[C@H](C)[C@@H](O)[C@]1(C)O [ERYTHROMYCIN]
- MIC (Staphylococcus aureus [3]): 1 µg/mL (≈ 1.36 µM)
- MIC (Staphylococcus aureus [4]): 8 µg/mL (≈ 10.9 µM)
- MIC (Staphylococcus aureus [5]): 8 µg/mL (≈ 10.9 µM)
- MIC (Staphylococcus aureus [6]): > 128 µg/mL
- MIC (Staphylococcus aureus [7]): > 128 µg/mL
- MIC (Staphylococcus aureus [1]): 0.13 µg/mL (≈ 0.177 µM)
- MIC (Staphylococcus aureus [8]): > 128 µg/mL
- MIC (Staphylococcus aureus [9]): 0.25 µg/mL (≈ 0.341 µM)
- MIC (Staphylococcus aureus [10]): > 128 µg/mL
- MIC (Staphylococcus aureus [11]): > 128 µg/mL
- MIC (Staphylococcus aureus [12]): > 128 µg/mL

SMILES: CC1(C)S[C@@H]2[C@H](NC(=O)[C@H](N)c3ccccc3)C(=O)N2[C@H]1C(=O)O [AMPICILLIN]
- MIC (Staphylococcus aureus [3]): 64 µg/mL (≈ 183 µM)
- MIC (Staphylococcus aureus [5]): 128 µg/mL (≈ 366 µM)
- MIC (Staphylococcus aureus [6]): 64 µg/mL (≈ 183 µM)
- MIC (Staphylococcus aureus [7]): 4 µg/mL (≈ 11.4 µM)
- MIC (Staphylococcus aureus [1]): 0.25 µg/mL (≈ 0.715 µM)
- MIC (Staphylococcus aureus [8]): 64 µg/mL (≈ 183 µM)
- MIC (Staphylococcus aureus [9]): 32 µg/mL (≈ 91.6 µM)
- MIC (Staphylococcus aureus [10]): 64 µg/mL (≈ 183 µM)
- MIC (Staphylococcus aureus [11]): 4 µg/mL (≈ 11.4 µM)
- MIC (Staphylococcus aureus [12]): 32 µg/mL (≈ 91.6 µM)

SMILES: O=C1[C@H](CC2CC2)N2C(=O)CCN(C(=O)NCCCC(F)(F)F)[C@H]2CN1Cc1cccc2ccccc12
- MIC (Staphylococcus aureus [1]): 4 µg/mL (≈ 7.74 µM)
- EC50 [2]: 3500 nM

SMILES: CN[C@@H]1[C@@H](O)[C@@H](O[C@@H]2[C@@H](O)[C@H](O[C@H]3O[C@H](CN)CC[C@H]3N)[C@@H](N)C[C@H]2N)OC[C@]1(C)O [GENTAMICIN C1A]
- MIC (Staphylococcus aureus [3]): 128 µg/mL (≈ 285 µM)
- MIC (Staphylococcus aureus [4]): 1 µg/mL (≈ 2.22 µM)
- MIC (Staphylococcus aureus [5]): > 128 µg/mL
- MIC (Staphylococcus aureus [6]): > 128 µg/mL
- MIC (Staphylococcus aureus [7]): 0.5 µg/mL (≈ 1.11 µM)
- MIC (Staphylococcus aureus [1]): 0.5 µg/mL (≈ 1.11 µM)
- MIC (Staphylococcus aureus [8]): 64 µg/mL (≈ 142 µM)
- MIC (Staphylococcus aureus [9]): 0.5 µg/mL (≈ 1.11 µM)
- MIC (Staphylococcus aureus [10]): 128 µg/mL (≈ 285 µM)
- MIC (Staphylococcus aureus [11]): 0.25 µg/mL (≈ 0.556 µM)
- MIC (Staphylococcus aureus [12]): > 128 µg/mL

SMILES: CC[C@H](C)[C@H]1C(=O)N(Cc2cccc3ccccc23)C[C@@H]2N(C(=O)NCCC3CC3)CCC(=O)N12
- MIC (Staphylococcus aureus [1]): 2 µg/mL (≈ 4.2 µM)
- EC50 [2]: 1900 nM

SMILES: CC(C)[C@H]1C(=O)N(Cc2cccc3ccccc23)C[C@@H]2N(C(=O)NCCCC(F)(F)F)CCC(=O)N12
- MIC (Staphylococcus aureus [1]): 2 µg/mL (≈ 3.96 µM)
- EC50 [2]: 1600 nM

SMILES: O=C1[C@H](CC2CCCCC2)N2C(=O)CCN(C(=O)NCCCC(F)(F)F)[C@H]2CN1Cc1cccc2ccccc12
- MIC (Staphylococcus aureus [1]): 2 µg/mL (≈ 3.58 µM)
- EC50 [2]: 1600 nM

SMILES: CCCNC(=O)N1CCC(=O)N2[C@@H]([C@@H](C)CC)C(=O)N(Cc3cccc4ccccc34)C[C@H]12
- MIC (Staphylococcus aureus [1]): 16 µg/mL (≈ 35.5 µM)
- EC50 [2]: 2200 nM

SMILES: CC(C)C[C@H]1C(=O)N(Cc2cccc3ccccc23)C[C@@H]2N(C(=O)NCCCC(F)(F)F)CCC(=O)N21
- MIC (Staphylococcus aureus [1]): 4 µg/mL (≈ 7.71 µM)
- EC50 [2]: 1300 nM

Other lines, results leading:

- MIC (Staphylococcus aureus [1]): 4 µg/mL (≈ 7.34 µM)
- EC50 [2]: 2200 nM
SMILES: O=C1[C@H](CC2CCCC2)N2C(=O)CCN(C(=O)NCCCC(F)(F)F)[C@H]2CN1Cc1cccc2ccccc12

- MIC (Staphylococcus aureus [1]): 8 µg/mL (≈ 16.7 µM)
- EC50 [2]: 5200 nM
SMILES: CCCC(C)NC(=O)N1CCC(=O)N2[C@@H]([C@@H](C)CC)C(=O)N(Cc3cccc4ccccc34)C[C@H]12 (stereo partly drawn)

- MIC (Staphylococcus aureus [1]): 4 µg/mL (≈ 8.25 µM)
- EC50 [2]: 1300 nM
SMILES: CC[C@H](C)[C@H]1C(=O)N(Cc2cccc3ccccc23)C[C@@H]2N(C(=O)NCCCCl)CCC(=O)N12

- MIC (Staphylococcus aureus [1]): 4 µg/mL (≈ 6.69 µM)
- EC50 [2]: 1940 nM
SMILES: CC[C@H](C)[C@H]1C(=O)N(Cc2ccc(Br)c3ccccc23)C[C@@H]2N(C(=O)NCCCC(F)(F)F)CCC(=O)N12

- MIC (Staphylococcus aureus [1]): > 128 µg/mL
- EC50 [2]: > 40000 nM
SMILES: CC[C@H](C)[C@H]1C(=O)N(Cc2cccc3ccccc23)C[C@@H]2N(C(=O)NCCCCCCl)CCC(=O)N12

- MIC (Staphylococcus aureus [1]): 8 µg/mL (≈ 15 µM)
- EC50 [2]: 2900 nM
SMILES: O=C1[C@H](Cc2ccccc2)N2C(=O)CCN(C(=O)NCc3ccccc3)[C@H]2CN1Cc1cccc2ccccc12

- MIC (Staphylococcus aureus [1]): 4 µg/mL (≈ 8.02 µM)
- EC50 [2]: 900 nM
SMILES: CC[C@H](C)[C@H]1C(=O)N(Cc2cccc3ccccc23)C[C@@H]2N(C(=O)NCc3ccccc3)CCC(=O)N12

- MIC (Staphylococcus aureus [1]): 1 µg/mL (≈ 1.93 µM)
- EC50 [2]: 720 nM
SMILES: CC[C@H](C)[C@H]1C(=O)N(Cc2cccc3ccccc23)C[C@@H]2N(C(=O)NCCCC(F)(F)F)CCC(=O)N12

- MIC (Staphylococcus aureus [1]): 4 µg/mL (≈ 8.02 µM)
- EC50 [2]: 1100 nM
SMILES: CC[C@H](C)[C@H]1C(=O)N(Cc2cccc3ccccc23)C[C@@H]2N(C(=O)NCCCCCl)CCC(=O)N12
